Assay results published in patent EP3169154B1, “DILUENT FOR SEMEN PRESERVATION” (Politécnico Colombiano Jaime Isaza Cadavid, priority 2014, dated 2016).

Experiments:
[1] = test system: semen ejaculates; assay: Inhibition of ROS production in semen ejaculates; type: cell-based; conditions: for inhibition at 20 µM: 20 µM in diluent of Example 1; for inhibition at 40 µM: 40 µM in diluent of Example 1; for inhibition at 50 µM: 50 µM in diluent of Example 1; for inhibition at 60 µM: 60 µM in diluent of Example 1; for inhibition at 80 µM: 80 µM in diluent of Example 1; for inhibition at 100 µM: 100 µM in diluent of Example 1
Description: (§1) Two diluents are prepared in accordance with Example 1, adding isoespintanol to one of them, and thymol to the other. In order to determine the cytoprotective (antioxidant) potential of each, the effects of adding different concentrations of these compounds to semen ejaculates were studied. The inhibition of ROS production and the reduction of lipid peroxidation were assessed, thereby determining the effective range as well as the maximum inhibitory concentration of thymol and isoespintanol (Tables 2 and 3). Table 2. Results of the inhibition of ROS production

[2] = test system: semen ejaculates; assay: Lipid peroxidation inhibition in semen ejaculates; type: cell-based; conditions: for inhibition at 20 µM: 20 µM in diluent of Example 1; for inhibition at 40 µM: 40 µM in diluent of Example 1; for inhibition at 50 µM: 50 µM in diluent of Example 1; for inhibition at 60 µM: 60 µM in diluent of Example 1; for inhibition at 80 µM: 80 µM in diluent of Example 1; for inhibition at 100 µM: 100 µM in diluent of Example 1
Description: as §1

[3] = test system: carrageenan-induced foot inflammation; conditions: some rodents; cited from earlier work
[4] = test system: interleukin-1β; conditions: cited from earlier work

| Structure (SMILES) | inhibition at 20 µM [1] [%] | inhibition at 40 µM [1] [%] | inhibition at 50 µM [1] [%] | inhibition at 60 µM [1] [%] | inhibition at 80 µM [1] [%] | inhibition at 100 µM [1] [%] | inhibition at 20 µM [2] [%] | inhibition at 40 µM [2] [%] | inhibition at 50 µM [2] [%] | inhibition at 60 µM [2] [%] | inhibition at 80 µM [2] [%] | inhibition at 100 µM [2] [%] | reduction of carrageenan-induced foot inflammation [3] [%] | reduction of interleukin-1β production [4] [%] |
| --- | --- | --- | --- | --- | --- | --- | --- | --- | --- | --- | --- | --- | --- | --- |
| Cc1ccc(C(C)C)c(O)c1 [thymol, 2-isopropyl-5-methylphenol, reference compound] | 11.7 | 12.3 | 51.2 | 26 | 21 | 27.6 | 48.1 | 47.7 | 40.8 | 36.6 | 47 | 28.3 |  |  |
| COc1cc(C)c(OC)c(O)c1C(C)C [isoespintanol, 2-isopropyl-3,6-dimethoxy-5-methylphenol] | 16 | 24.2 | 34.5 | 16.9 | 6.1 | 5.6 | 21.1 | 29.9 | 29.4 | 51.1 | 42.1 | 29.8 | 43 | ≤ 72 |
